US6291405A, “Glycol based drilling fluid” (M-I LLC, priority 1998, dated 2001)

Experiments:
[1] = Gumbo shale sticking test, diethylene glycol/water plus 10% GMO; conditions: in words
Method: This test was conducted using the test method described in example 2, except each test sample contained 10% glycerol monooleate (GMO) as the antisticking agent.

[2] = cited from earlier work; for toxicity ranking: based on laboratory test data, direct ingestion; for LD50: single-dose oral
[3] = Viscosity properties of glycols, Fann 35A viscometer readings; assay type: physicochemical
Method: Readings were taken on a Fann 35A viscometer at 600 and 300 rpm both at room temperature and 120° F.

CCCCCCCC/C=C\CCCCCCCC(=O)OCC(O)CO (centres unmarked) [glycerol monooleate]
antisticking properties [1]: improved the antisticking properties of the diethylene glycol fluids

CC(O)COC(C)COC(C)CO (centres unmarked) [Tripropylene Glycol, tripropylene glycol]
toxicity ranking [2]: the most toxic | Fann 35A viscometer reading ([3]; 120° F, 300 rpm): 18 | Fann 35A viscometer reading ([3]; 120° F, 600 rpm): 34 | Fann 35A viscometer reading ([3]; Room Temperature, 300 rpm): 59 | Fann 35A viscometer reading ([3]; Room Temperature, 600 rpm): 116

OCCOCCOCCO [Triethylene Glycol, triethylene glycol]
toxicity ranking [2]: followed by diethylene, triethylene, and dipropylene glycols | LD50 [2]: 16-22 gm/KG | Fann 35A viscometer reading ([3]; 120° F, 300 rpm): 16 | Fann 35A viscometer reading ([3]; 120° F, 600 rpm): 31 | Fann 35A viscometer reading ([3]; Room Temperature, 300 rpm): 42 | Fann 35A viscometer reading ([3]; Room Temperature, 600 rpm): 83

dipropylene glycol
toxicity ranking [2]: followed by diethylene, triethylene, and dipropylene glycols | LD50 [2]: ~ 15 gm/KG | Fann 35A viscometer reading ([3]; 120° F, 300 rpm): 21 | Fann 35A viscometer reading ([3]; 120° F, 600 rpm): 41 | Fann 35A viscometer reading ([3]; Room Temperature, 300 rpm): 82 | Fann 35A viscometer reading ([3]; Room Temperature, 600 rpm): 163

CC(CO)CO [2-Methyl Propyl 1,3-Diol, reference compound]
Fann 35A viscometer reading ([3]; 120° F, 300 rpm): 42 | Fann 35A viscometer reading ([3]; 120° F, 600 rpm): 80 | Fann 35A viscometer reading ([3]; Room Temperature, 300 rpm): 216 | Fann 35A viscometer reading ([3]; Room Temperature, 600 rpm): > 300

OCCOCCO [Diethylene Glycol, diethylene glycol]
toxicity ranking [2]: followed by diethylene, triethylene, and dipropylene glycols | LD50 [2]: 16-21 gm/KG

OCC(O)CO [Glycerine, reference compound]
Fann 35A viscometer reading ([3]; 120° F, 300 rpm): 135 | Fann 35A viscometer reading ([3]; 120° F, 600 rpm): 262 | Fann 35A viscometer reading ([3]; Room Temperature, 300 rpm): > 300 | Fann 35A viscometer reading ([3]; Room Temperature, 600 rpm): > 300

CC(O)CO (centres unmarked) [Propylene Glycol, propylene glycol]
toxicity ranking [2]: the least toxic | LD50 [2]: 21-34 gm/KG | Fann 35A viscometer reading ([3]; 120° F, 300 rpm): 15 | Fann 35A viscometer reading ([3]; 120° F, 600 rpm): 28 | Fann 35A viscometer reading ([3]; Room Temperature, 300 rpm): 47 | Fann 35A viscometer reading ([3]; Room Temperature, 600 rpm): 92

OCCO [Ethylene Glycol, ethylene glycol]
toxicity ranking [2]: the most toxic | LD50 [2]: 6-12 gm/KG

butylene glycol
toxicity ranking [2]: the least toxic | LD50 [2]: 23-30 gm/KG
